# Test results published in US20080009505A1, “Theanine derivatives, uses thereof and processes for the manufacture thereof” (Conopco Inc. d/b/a UNILEVER, priority 2006, published 2008).
# Read-outs that look alike come from different tables or passages of the source.
# Assay type: physicochemical
# Settings: pH 4; for Remaining: buffer
# Procedure: 0.05 M citrate buffer with a pH of 4.0 at 20.3° C. was prepared. To this buffer were added 5.35 mM theanine and 2.675 mM of the theanine dimer. The resulting solution was held at 92° C. for two weeks with small samples being taken regularly for analysis with HPLC.
Remaining (0 h) [mM],Remaining (2.5 h) [mM],Remaining (17.5 h) [mM],Remaining (26.3 h) [mM],Remaining (42 h) [mM],Remaining (50 h) [mM],Remaining (121.3 h) [mM],Remaining (137.3 h) [mM],Remaining (145.8 h) [mM],Remaining (161.6 h) [mM],Remaining (170.2 h) [mM],Remaining (185.8 h) [mM],Remaining (193.3 h) [mM],Stability compared with theanine,Compound
5.35,4.83,2.54,1.83,0.81,0.05,0.04,0.03,0.02,0.01,0.01,0.01,0.01,–,"CCNC(=O)CCC(N)C(=O)O (stereo not drawn) [Theanine, N-gamma-ethyl glutamine]"
2.68,2.75,2.80,2.78,2.99,3.31,3.36,3.38,3.51,3.54,3.59,3.63,3.80,much more stable than theanine,"CCNC(=O)CCC1NC(=O)C(CCC(=O)NCC)NC1=O (stereo not drawn) [Theanine Dimer, N-ethyl-3-[5-(2-ethylcarbamoyl-ethyl)-3,6-dioxo-piperazin-2-yl]-propionamide]"
